Results published in ChEMBL document CHEMBL1201862, “PubChem BioAssay data set” (2004).
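Each compound was tested at five concentrations against cells in 96-well plates for 48 hours. GI50: concentration for 50% inhibition of growth.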 The source made the active and inactive calls. Rule as the data show it: active = GI50 up to about 1.1 µM and inactive = higher.

What was measured:
Assay in all cases: DTP human tumour cell line panel, 48 h
786-0 = test system: 786-0
HCT-116 = test system: HCT-116
HCT-15 = test system: HCT-15
HL-60 = test system: HL-60
HT-29 = test system: HT-29
Hs-578T = test system: Hs-578T
IGROV-1 = test system: IGROV-1
MCF7 = test system: MCF7
NCI-H226 = test system: NCI-H226
NCI-H23 = test system: NCI-H23
NCI-H522 = test system: NCI-H522
OVCAR-3 = test system: OVCAR-3
SF-295 = test system: SF-295
SF-539 = test system: SF-539
SK-MEL-28 = test system: SK-MEL-28
SK-MEL-2 = test system: SK-MEL-2
SNB-75 = test system: SNB-75
SW-620 = test system: SW-620
TK-10 = test system: TK-10
UACC-257 = test system: UACC-257

SMILES	GI50 (786-0)	GI50 (HCT-116)	GI50 (HCT-15) [µM]	GI50 (HL-60)	GI50 (HT-29)	GI50 (Hs-578T)	GI50 (IGROV-1)	GI50 (MCF7)	GI50 (NCI-H226)	GI50 (NCI-H23)	GI50 (NCI-H522)	GI50 (OVCAR-3)	GI50 (SF-295)	GI50 (SF-539)	GI50 (SK-MEL-28)	GI50 (SK-MEL-2)	GI50 (SNB-75)	GI50 (SW-620)	GI50 (TK-10)	GI50 (UACC-257)
COc1ccc2c(c1)-c1nn(CCN(C)C)c3ccc(C(=O)NCCCN(C)CCCNC(=O)c4ccc5c6c(c7cc(OC)ccc7nc46)NN5CCN(C)C)c(c13)N2	0.0313 µM (active)	< 0.01 µM (active)	0.251	0.204 µM (active)	0.0213 µM (active)	0.201 µM (active)	0.0215 µM (active)	0.0202 µM (active)	0.155 µM (active)	0.0344 µM (active)	< 0.01 µM (active)	0.0933 µM (active)	0.0671 µM (active)	< 0.01 µM (active)	0.0561 µM (active)	0.0184 µM (active)	0.114 µM (active)	0.018 µM (active)	0.102 µM (active)	0.0702 µM (active)
COc1ccccc1/[N+]([O-])=C/c1ccccc1OC(=S)S	26.5 µM (inactive)	42 µM (inactive)	23	25.8 µM (inactive)	> 100 µM (inactive)	73.6 µM (inactive)	19.6 µM (inactive)	23.7 µM (inactive)	28.8 µM (inactive)	28.2 µM (inactive)	22.3 µM (inactive)	26.2 µM (inactive)	32.2 µM (inactive)	57.1 µM (inactive)	> 100 µM (inactive)	21.5 µM (inactive)	25.8 µM (inactive)	44.5 µM (inactive)	> 100 µM (inactive)	28.1 µM (inactive)
C[C@H]1C2Cc3cc(O)ccc3[C@@]1(C)CCN2CCc1ccc(N)cc1	15.8 µM (inactive)	15.9 µM (inactive)	18.2	38.3 µM (inactive)	15.5 µM (inactive)	> 100 µM (inactive)	13.6 µM (inactive)	15.2 µM (inactive)	> 100 µM (inactive)	> 100 µM (inactive)	19.7 µM (inactive)	14.2 µM (inactive)	18.6 µM (inactive)	16.7 µM (inactive)	18.6 µM (inactive)	41.9 µM (inactive)	> 100 µM (inactive)	15.3 µM (inactive)	> 100 µM (inactive)	18.6 µM (inactive)
CC(=O)OCC1OC(n2c(N)c(C#N)c(-c3ccccc3)c(C#N)c2=S)C(OC(C)=O)C(OC(C)=O)C1OC(C)=O (stereo not given)	21.8 µM (inactive)	> 100 µM (inactive)	> 100	> 100 µM (inactive)	> 100 µM (inactive)	14.6 µM (inactive)	> 100 µM (inactive)	> 100 µM (inactive)	> 61.4 µM (inactive)	> 65.8 µM (inactive)	13 µM (inactive)	> 100 µM (inactive)	30.8 µM (inactive)	> 46.9 µM (inactive)	> 100 µM (inactive)	> 58.9 µM (inactive)	7.33 µM (inactive)	> 100 µM (inactive)	> 100 µM (inactive)	> 100 µM (inactive)
[O-][N+]1=[N+]([O-])[C@@H](c2ccccc2)[C@H]1c1ccccc1	13.5 µM (inactive)	16.6 µM (inactive)	11.4	2.05 µM (inactive)	18.3 µM (inactive)	> 100 µM (inactive)	12.6 µM (inactive)	15.7 µM (inactive)	21.3 µM (inactive)	16.5 µM (inactive)	11.5 µM (inactive)	15.2 µM (inactive)	19.9 µM (inactive)	18.4 µM (inactive)	16.6 µM (inactive)	17.9 µM (inactive)	21.3 µM (inactive)	14.5 µM (inactive)	17 µM (inactive)	13.1 µM (inactive)
C/C1=C\CC[C@@]2(C)O[C@@H]2C[C@@H]2[C@H](C/C(C)=C/CC1)OC(=O)[C@]21CO1	> 100 µM (inactive)	41.5 µM (inactive)	> 100	> 100 µM (inactive)	69.3 µM (inactive)	> 100 µM (inactive)	42.2 µM (inactive)	41.5 µM (inactive)	> 100 µM (inactive)	> 100 µM (inactive)	32.5 µM (inactive)	> 100 µM (inactive)	> 100 µM (inactive)		> 100 µM (inactive)	> 100 µM (inactive)	> 100 µM (inactive)	68.7 µM (inactive)	> 100 µM (inactive)	> 100 µM (inactive)
COc1ccc(NC=O)c(C(O)CCNC(C)=O)c1 (stereo not given)	> 100 µM (inactive)	> 100 µM (inactive)	> 100	> 100 µM (inactive)	> 100 µM (inactive)	> 100 µM (inactive)	> 100 µM (inactive)	> 100 µM (inactive)	> 100 µM (inactive)	> 100 µM (inactive)	> 100 µM (inactive)	> 100 µM (inactive)	> 100 µM (inactive)	> 100 µM (inactive)		> 100 µM (inactive)	> 100 µM (inactive)	> 100 µM (inactive)	> 100 µM (inactive)	> 100 µM (inactive)
C/C(=N\NC(N)=S)c1nc2cccnc2[nH]1	51.8 µM (inactive)	54 µM (inactive)	53.6	32.6 µM (inactive)	41.3 µM (inactive)	> 100 µM (inactive)	82 µM (inactive)	26.8 µM (inactive)	> 56 µM (inactive)		> 68.5 µM (inactive)	31.8 µM (inactive)	84.9 µM (inactive)	58.9 µM (inactive)	> 88.9 µM (inactive)	> 100 µM (inactive)	> 100 µM (inactive)	56.8 µM (inactive)	> 80.4 µM (inactive)	> 88.5 µM (inactive)
CCC(=O)N(c1ccccc1)C(C)CN1CCC(O)(c2ccccc2)CC1 (stereo not given)	> 100 µM (inactive)	80.9 µM (inactive)	> 100	> 100 µM (inactive)	58.3 µM (inactive)	> 100 µM (inactive)	> 100 µM (inactive)	> 100 µM (inactive)	> 100 µM (inactive)	> 100 µM (inactive)	> 100 µM (inactive)	> 100 µM (inactive)	> 100 µM (inactive)	> 100 µM (inactive)	> 100 µM (inactive)	> 100 µM (inactive)	> 100 µM (inactive)		> 100 µM (inactive)	> 100 µM (inactive)
CC(C)/C(Cl)=N/OC(NC(=O)Nc1ccc(Cl)c(Cl)c1)(C(F)(F)F)C(F)(F)F	8.77 µM (inactive)	7.36 µM (inactive)	13.2	2.54 µM (inactive)	15.4 µM (inactive)	28.6 µM (inactive)	16.2 µM (inactive)	19.4 µM (inactive)	19.9 µM (inactive)	17.8 µM (inactive)	1.69 µM (inactive)	5.9 µM (inactive)	19.8 µM (inactive)	17.4 µM (inactive)	19.2 µM (inactive)		16.9 µM (inactive)	1.81 µM (inactive)	17.4 µM (inactive)	13.2 µM (inactive)
